Here are results for 8 molecules from PMC8187775, “Metabolism and Tissue Distribution of Chelerythrine and Effects of Macleaya Cordata Extracts on Liver NAD(P)H Quinone Oxidoreductase” (Frontiers in Veterinary Science, 2021).

What is called Cmax is the highest concentration seen after dosing. As usually defined, the Tmax is the time at which the peak concentration occurs. One may read the IC50 as the point on the concentration scale where inhibition reaches its midpoint. Lower therefore signals greater potency.

The subject of series [1] is rat liver cytosol. Kind of series: Effect of inhibitors on chelerythrine iminium bond reduction to DHCHE by rat liver cytosol. As to conditions: 100 μmol/L inhibitor, 0.25 mg/mL cytosol protein, 2 mM NADPH, 10 μg/mL chelerythrine, 15 min. The format is in vitro ADME. As to the method:
In brief, the incubation mixture consisted of 0.25 mg/mL cytosol protein, 5 mM MgCl2, 100 μmol/L inhibitor, and 2 mM NADPH in 0.05 M Tris-HCl buffer (pH 7.4). The inhibitors were dicoumarol (quinone oxidoreductase 1), quercetin (quinone oxidoreductase 2, carbonyl reductase), menadione (aldehyde oxidase, carbonyl reductase), and 7-hydroxycoumarin (xanthine oxidase). The reaction was preincubated at 37°C for 5 min. […] The incubation mixtures without the inhibitor or cytosol protein acted as the blank control. The reaction was stopped by adding 200 μL ice-cold acetonitrile after 15 min, and the mixture was vortexed and centrifuged at 12,000 g for 15 min. […] Phenomenex Co. USA). The mobile phase consisted of a 30/70 (v/v) mixture of solvent A (0.2% aqueous acetic acid solution) and solvent B (acetonitrile). The injection dose was 10 μl and the flow rate was 1 mL/min. The column temperature was set to 35°C and the detection wavelength was set to 285 nm. The DHCHE standard curve varied linearly in the concentration range from 0.050 to 10 μg/mL. […] The lower limit of quantification was 0.050 μg/mL.

Series [2] in a line: Metabolite profile of chelerythrine in plasma, urine and feces of rats after intragastric chelerythrine (HPLC/QqTOF-MS). As to the method: Ten SD rats (160–180 g, five males and five females) were individually placed in stainless steel metabolic cages. […] Chelerythrine in water with the dissolving aid of Tween-80 was intragastrically administered to rats at a dose of 10 mg/kg. One milliliter whole blood samples were collected from retro orbital sinus with a heparinized blood collection tube at 3 h following drug dosing. Each collected blood sample was centrifuged at 3,000 rpm at 4°C for 10 min to obtain plasma samples. […] All samples were collected from female and male rats and stored at −70°C.
(§1) The preparations of plasma, urine, feces, and tissues were pretreatments according to our current study ([19]).
(§2) The injection volume was 5 μL.
Nitrogen was used as atomization gas, and the flow rate was 9 L/min. The parameters of the mass spectrometer were as follows: nozzle voltage 1 kv, capillary voltage 4.0 kv, sheath gas temperature 350°C, sheath gas flow rate 11 L/min, nebulizer voltage 35 psig. The quarantine window was set at 1 amu. The instrument automatically performed the internal mass calibration though the automated calibrate transfer system. […] All the data acquisition was controlled by Agilent Mass Hunter software (version B.01.03 Build 1.3.157.0 2), and the Agilent Mass Hunter software (Qualitative Analysis B.04.0) was used to accurately take mass measurements of each peak from the total ion chromatograms. Then, these metabolites were subjected to accurate EIC, and the acceptance or rejection was decided according to the peak appearing in the EIC. Structural elucidations of chelerythrine metabolites were carried out on the basis of the mass change from the metabolite or parent drug, the predicted elemental compositions, and the interpretation of accurate MS/MS spectra.

Series [3] in a line: Chelerythrine/sanguinarine and metabolites in rat tissues after 3 weeks of intragastric M. cordata extracts (HPLC/QqTOF-MS). The format is in vivo. As to the method: Tissue samples including cecal contents, lung, heart, liver, kidney, and spleen were collected at 24 and 48 h after the last administration and stored at −70°C.
as §2
The quarantine window was set at 1 amu.

Series [4] in a line: in vivo. As to the method:
Tissue distribution was carried out in eighteen SD rats (160–180 g, nine males and nine females). Twelve rats (six male and six female) were intragastrically administered with M. cordata extracts at a single dosage of 5 mg/kg (containing about 2 mg/kg dose of sanguinarine and 1 mg/kg dose of chelerythrine) in water with the dissolving aid of Tween-80 for 3 weeks. Three male and three female rats were given the same amount of water as the blank control group by intragastric administration.
as §1
The controls of the operating parameters were as follows: capillary voltage, 3,500 V; EM voltage, 200 V; dry gas (N2) flow rate, 12 L/min; ion source temperature, 350°C; nebulizer, 25 psi.
The proposed method was validated by evaluation of specificity, accuracy, precision, LOD, and LOQ.

In series [5] the target is T1, NAD(P)H quinone oxidoreductase (NQO1) (Rattus norvegicus, UniProt P05982).
T1 construct: 50 μg/mL rat liver cytosol; from tissue; host or cells: rat liver cytosol
T1 sequence (P05982 2-274 limits assumed): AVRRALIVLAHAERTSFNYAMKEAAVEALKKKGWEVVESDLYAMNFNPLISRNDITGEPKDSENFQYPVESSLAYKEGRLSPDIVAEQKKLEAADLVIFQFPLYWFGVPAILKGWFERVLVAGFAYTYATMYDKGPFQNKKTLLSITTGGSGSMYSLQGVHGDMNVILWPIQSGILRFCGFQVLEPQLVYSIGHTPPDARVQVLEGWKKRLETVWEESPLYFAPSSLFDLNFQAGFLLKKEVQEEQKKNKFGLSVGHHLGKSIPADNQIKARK
Kind of series: In vitro inhibition of rat cytosolic NQO1 activity (DCPIP reduction). The format is biochemical. As to conditions: for NQO1 activities: compound 40.00 μM, control 67.14 ± 4.82; for NQO1 activities / Effect on NQO1 activity: rat liver cytosol; for Effect on NQO1 activity: in vitro. As to the method:
Any change in absorbance was monitored at 620 nm, and NQO1 activity was calculated by using the extinction coefficient for DCPIP (ε = 21 mM^−1cm^−1) and expressed as nanomles of DCPIP reduced per minute per milligram of protein.
The inhibitory effects of sanguinarine and chelerythrine were determined by the incubation of the reaction mixture with or without substrate. […] All of the incubations and sample preparations were carried out as described for the NQO1 assay above.

Details of series [6]: method as in none printed. As to conditions: no species, dose or reference given; cited from earlier work.
Series [7] in a line: Metabolite profile of sanguinarine in plasma, urine and feces of rats after intragastric M. cordata extracts. Format: in vivo, rat.

In the case of `O=c1oc2ccccc2c(O)c1Cc1c(O)c2ccccc2oc1=O` [Dicoumarol, dicoumarol], the “Effect on iminium bond reduction of chelerythrine (DHCHE formation) in rat liver cytosol” value (from here on “Effect on iminium bond reduction”) in series [1] is reported as “could inhibit”.

As for `COc1ccc2c(c[n+](C)c3c4cc5c(cc4ccc23)OCO5)c1OC` [Chelerythrine], the “Detection in plasma” value in series [2] (male and female rats, three hours after intragastric chelerythrine) was “no parent drug and metabolites were detected”. Also, the “Found in spleen, lung, kidney, liver or heart by HPLC/QqTOF-MS” value in series [3] was “no sanguinarine and chelerythrine or their metabolites were found”. The “Concentrations in (others) tissues” value in series [4] (both, SD, rat, in vivo) is listed as below 15 ng/g. In addition, the concentration at 24 h in series [4] (both, SD, rat, in vivo, Concentration in spleen) worked out at 44 ng/mL. Further, the concentration at 48 h in series [4] (both, SD, rat, in vivo, Concentration in the liver) is 20.6 ng/mL. Also, in series [5], the NQO1 activities is 64.90 ± 4.24 nanomolars of 2,6-dichlorophenolindophenol reduced per minute per milligram of protein and the “Effect on NQO1 activity” value is reported as “weak impact”. Also, in series [6], the Cmax was 5.06 ng/mL, the T1/2 is 2.82 h and the Tmax is recorded as 1.67 h.

`O=c1ccc2ccc(O)cc2o1` [7-hydroxycoumarin]: in series [1], the “Effect on iminium bond reduction” value is “could inhibit”.

Regarding `COc1ccc2c(c1OC)CN(C)c1c-2ccc2cc3c(cc12)OCO3` [DHCHE, dihydrochelerythrine], in series [2] (rat, in vivo), the “Found in feces” value is given as “found” and the “Observed in feces” value is recorded as “observed”.

On to `C[n+]1cc2c3c(ccc2c2ccc4cc5c(cc4c21)OCO5)OCO3` [Sanguinarine], for which, in series [3], the “Found in spleen, lung, kidney, liver or heart by HPLC/QqTOF-MS” value was “no sanguinarine and chelerythrine or their metabolites were found”. For the same molecule, the concentration at 24 h in series [4] (both, SD, rat, in vivo, 5 mg/kg, Residue in heart, 24 h after last dose, M. cordata extracts 5 mg/kg intragastric for 3 weeks) came to 2.91 ng/g; in series [4] (both, SD, rat, in vivo, 5 mg/kg, Residue in kidney, 24 h after last dose, M. cordata extracts 5 mg/kg intragastric for 3 weeks), 3.77 ng/g; in series [4] (both, SD, rat, in vivo, 5 mg/kg, Residue in liver, 24 h after last dose, M. cordata extracts 5 mg/kg intragastric for 3 weeks), 10.4 ng/g; in series [4] (both, SD, rat, in vivo, 5 mg/kg, Residue in lung, 24 h after last dose, M. cordata extracts 5 mg/kg intragastric for 3 weeks), 2.29 ng/g; in series [4] (both, SD, rat, in vivo, 5 mg/kg, Residue in spleen, 24 h after last dose, M. cordata extracts 5 mg/kg intragastric for 3 weeks) it was 2.01 ng/g. For the same molecule, the concentration at 48 h in series [4] (both, SD, rat, in vivo, 5 mg/kg, Residue in heart, 48 h after last dose, M. cordata extracts 5 mg/kg intragastric for 3 weeks) came to 2.57 ng/g; in series [4] (both, SD, rat, in vivo, 5 mg/kg, Residue in kidney, 48 h after last dose, M. cordata extracts 5 mg/kg intragastric for 3 weeks), 5.65 ng/g; in series [4] (both, SD, rat, in vivo, 5 mg/kg, Residue in liver, 48 h after last dose, M. cordata extracts 5 mg/kg intragastric for 3 weeks) it was 9.8 ng/g; in series [4] (both, SD, rat, in vivo, 5 mg/kg, Residue in lung, 48 h after last dose, M. cordata extracts 5 mg/kg intragastric for 3 weeks), 2.01 ng/g; in series [4] (both, SD, rat, in vivo, 5 mg/kg, Residue in spleen, 48 h after last dose, M. cordata extracts 5 mg/kg intragastric for 3 weeks), 1.91 ng/g. For the same molecule, the “Concentrations in other tissues” value in series [4] (tissues other than chelerythrine in liver 48 h and spleen 24 h) is below 11 ng/g. For the same molecule, the NQO1 activities in series [5] is 45.08 ± 4.34 nanomolars of 2,6-dichlorophenolindophenol reduced per minute per milligram of protein. Further, the IC50 in series [5] (rat liver cytosol 50 μg/mL, 40 μM DCPIP, 0.2 mM NADH, 0–40 μM compound) was found to be 112 ± 6.17 µM. In addition, in series [5], the “Effect on NQO1 activity” value is listed as “statistically significant decline”. Besides, the “Observed in plasma at 3 h and urine of 0–24 h” value in series [7] (rats, after intragastric M. cordata extracts) is reported as “No parent drug or metabolites were observed”.

Take `CC1=CC(=O)c2ccccc2C1=O` [menadione]: in series [1], the “Effect on iminium bond reduction” value is listed as “could inhibit”.

Take `CN1Cc2c(ccc3c2OCO3)-c2ccc3cc4c(cc3c21)OCO4` [Metabolite S1, dihydrosanguinarine]: the “Observed in rats in vivo (feces 0–24 h)” value in series [7] (5 mg/kg M. cordata extracts intragastric) was “observed”.

As to `O=c1c(O)c(-c2ccc(O)c(O)c2)oc2cc(O)cc(O)c12` [quercetin], in series [1], the “Effect on iminium bond reduction” value is given as “could inhibit”.
